Patent US7691418B2, “Composition for inhibiting or preventing the formation of a biofilm” (Oystershell NV, priority 2004, dated 2010)

Columns and labels:
[1] = system: S. mutans biofilm; test: S. mutans biofilm formation on hydroxyl apatite discs in Modified Robbins Devices, SYTO 9 fluorescence; type: cell-based, Streptococcus mutans; settings: FIG. 12; 5 μg/ml (sub-MIC)
Text: A first example illustrates the influence of extracts according to the invention on the development of a S. mutans biofilm. Hereby a model system for the study of biofilm formation on discs was used. The system comprises the irrigation of a growing medium and micro-organisms on discs and to develop the formation of microbial biofilms thereon. The system permits to compare biomasses of biofilms which were and were not exposed to plant extracts according to the invention. Since teeth comprise hydroxyl apatite (HAP), discs comprising HAP (Clarkson Chromatography Products, South Williamsport, Pa., USA) were used for each experiment. […] Before starting biofilm experiments, the minimum inhibitory concentration (MIC value) was determined for each plant extract. […] Quantification of biofilm formation was done by putting the HAP discs in a microtiter plate, followed by staining the discs with a SYTO®9 solution, that stains the DNA of living bacteria as well as of dead bacteria. After an incubation period of approximately 15 minutes the microtiter plate was scanned in an automatic microtiter plate reader (Wallac 1420 Multilabel Counter (Victor^2™; Perkin Elmer Life and Analytical Sciences, Boston, Mass., USA) able to measure absorption as well as fluorescence and luminescence.

[2] = system: glycosyltransferase (GTF); dextran sucrase of Leuconostoc mesenteroides; test: GTF enzyme assay: insoluble dextran formation followed by turbidity at 690 nm; type: biochemical; settings: positive controls: TRIS 2, 10, 100 mM; DJM 10 mM

Compound | average fluorescence values compared with positive control BHIS [1] | absorption of formed dextran with known GTF inhibitors [2]
Cc1cc(O)c2c(c1)C(=O)c1cc(O)cc(O)c1C2=O [emodin] | significantly lower that those of the positive control BHIS | –
NC(CO)(CO)CO [TRIS] | – | decrease in absorption
OC[C@H]1NC[C@H](O)[C@@H](O)[C@@H]1O [DJM, 1-deoxynojirimycine] | – | decrease in absorption
